This note sets out measurements from the METLIN SMRT retention time set (Domingo-Almenara et al. 2019).

A short description of the data set: gradient 5% acetonitrile 3 min, to 50% in 2 min, to 85% in 15 min, held 3 min, 100 µL/min. Conditions: column: Zorbax Extend-C18 2.1 x 50 mm; eluents: water / acetonitrile, 0.1% formic acid. The procedure, abridged:
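Over 3 months, pure standards in mixtures of ~100 molecules were run by HPLC coupled to a quadrupole time-of-flight mass spectrometer in positive and negative ionization mode. The column was a Zorbax Extend-C18 (2.1 × 50 mm, 1.8 μm) at 100 μL/min, eluted with water and acetonitrile each holding 0.1% formic acid, with 40 μL dead and 900 μL dwell volumes. Retention time was determined from adduct peaks chosen by software and checked manually.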
For `CCN1CCN(C(=O)Cc2ccc(Nc3ncc(F)c(Nc4ccc(C(=O)Nc5ccccc5Cl)cc4)n3)cc2)CC1`, the RP-LC retention time was determined as 684 s.

The compound `CCOc1ccc(NC(=O)NCC(c2cccnc2)c2cn(C)c3ccccc23)cc1` (stereo not drawn) yielded an RP-LC retention time of 703 s.

On to `CCOc1ccccc1NC(=O)C1CCc2nc(N3CCCCC3)ncc2C1` (stereo not drawn), for which the RP-LC retention time was 903 s.

In turn, `CCCN1CC(Oc2ccc(-c3noc(-c4cccnc4)n3)cc2)C1` came in with an RP-LC retention time of 621 s.

`Cc1ccc(-c2nc(-c3ccc(-n4cccn4)nc3)no2)cc1F`: the RP-LC retention time stood at 1370 s.

For the compound `Cc1ccccc1NC(=O)Cn1nc(N2CCC(C)CC2)c2ccccc2c1=O`, the RP-LC retention time is 1110 s.

The compound `Cc1ccn2c(Nc3ccc4c(c3)OCCO4)c(-c3ccccc3O)nc2c1` came in with an RP-LC retention time of 670 s.

`O=C(O)CCC1CCCN(S(=O)(=O)c2ccccc2)C1` (stereo not drawn): the RP-LC retention time was 770 s.

`CCc1nc(-c2csc(S(=O)(=O)N3CCCC(C(=O)Nc4cccc(C)n4)C3)c2)no1` (stereo not drawn): the RP-LC retention time amounted to 869 s.

The compound `O=C(CN1C(=O)C2CCCCN2c2ccc(S(=O)(=O)N3CCCC3)cc21)NC1CC1` (stereo not drawn) returned an RP-LC retention time of 770 s.

`CCc1nnc(NC(=O)C2CCN(C(=O)c3ccc(F)cc3)CC2)s1` came in with an RP-LC retention time of 679 s.

With `Cn1nc2n(c1=O)CCC(NS(=O)(=O)c1cccc3cccnc13)CC2` (stereo not drawn), the RP-LC retention time came to 648 s.

For the compound `COc1ccc(CC(=O)Nc2ccc(-c3nc(Cn4nc(C)cc4C)c(C)o3)cc2)cc1`, the RP-LC retention time stood at 903 s.

In turn, `Cn1nc(C(=O)N2CCCC(C(=O)NC3CC3)C2)c2c1CCN(C(=O)c1ccc(F)cc1)C2` (stereo not drawn) registered an RP-LC retention time of 633 s.

Take `COC(=O)c1cc(C)nc2c1c(=O)n(Cc1cccc(F)c1)c(=O)n2Cc1ccco1`: the RP-LC retention time was 1100 s.

For the compound `CC1=C(c2ccc(Cl)cc2)S(=O)(=O)N=C1N1CCCN(C(=O)c2cccs2)CC1`, the RP-LC retention time is 840 s.

`CCCS(=O)(=O)N1CCN(c2ccc(-n3cccn3)nn2)CC1` showed an RP-LC retention time of 694 s.

In turn, `Cc1cc(-c2nnc(C3CC3)o2)c(C)n1CC(=O)NCc1cc(F)cc(F)c1` had an RP-LC retention time of 813 s.

`CCCN(C)c1nccn2c(=O)n(CC(=O)Nc3ccc(F)cc3F)nc12` registered an RP-LC retention time of 673 s.

`CCN(CC)C(=O)N1CCC2(CC1)CC(N1CCN(c3ccccc3)CC1)CCO2` (stereo not drawn) displayed an RP-LC retention time of 582 s.

Compound `Cc1nnc2c(=O)n(CC(=O)NC3CCCCC3)c3cccnc3n12` yielded an RP-LC retention time of 668 s.

For the compound `COc1ccc(CNC(=O)c2nc3ccccn3c2-c2ccsc2)cc1`, the RP-LC retention time came out at 810 s.

Regarding `CCOC(=O)C1CCN(C(=O)c2cn(-c3cc(N4CCSCC4)ncn3)cn2)CC1`, the RP-LC retention time was 791 s.

Compound `Cc1ccc(C)c(-c2csc(Cc3nc(-c4ccc(F)cc4)no3)n2)c1` showed an RP-LC retention time of 1300 s.

`Cc1c(-c2nsc(Nc3ccccc3)n2)nnn1-c1ccccc1` showed an RP-LC retention time of 946 s.

For the compound `CCOC(=O)c1ccc(NC(=O)C2CCCN(c3nnc4c(Cl)cccn34)C2)cc1` (stereo not drawn), the RP-LC retention time came to 802 s.

`CCN1c2cc(Cl)ccc2C(=O)NC12CCN(C(=O)NCc1cccc(F)c1)CC2` registered an RP-LC retention time of 856 s.

Regarding `CC(NC(=O)c1cn(-c2cc(-c3nc(C(C)(C)C)no3)ccn2)cn1)c1ccccc1` (stereo not drawn), the RP-LC retention time came out at 1100 s.

With `CN1C(=O)CCc2cc(NC(=O)c3ccsc3)ccc21`, the RP-LC retention time came to 691 s.

With `Cc1ccc(NC(=O)Cn2cnc3c(sc4nc(-c5ccccc5)ccc43)c2=O)c(Cl)c1`, the RP-LC retention time was 1120 s.

In the case of `Cc1cccc(CNC(=O)C2CCN(S(=O)(=O)c3cn(C(C)C)cn3)CC2)c1`, the RP-LC retention time came to 773 s.

`Cc1cc(C)cc(N2CCC(NC(=O)CC(C)(C)C)C2=O)c1` (stereo not drawn) returned an RP-LC retention time of 877 s.

In the case of `O=C(NCc1ccc2c(c1)OCO2)c1nnc(-c2ccc(S(=O)(=O)N3CCOCC3)cc2)o1`, the RP-LC retention time is 804 s.

`COCC(C)NC(=O)C(=O)c1cn(CC(=O)N2CCOCC2)c2ccccc12` (stereo not drawn) yielded an RP-LC retention time of 704 s.

In turn, `CCCN(CCC)S(=O)(=O)c1ccc(C(=O)Nc2nc3c(s2)CCc2ccccc2-3)cc1` yielded an RP-LC retention time of 1310 s.

As to `Cc1noc(-c2ccc(-n3cnc(C(=O)NCCc4ccccc4)c3)nc2)n1`, the RP-LC retention time came to 678 s.

`COc1ccc(N2CC(c3noc(-c4cccc(OC)c4)n3)CC2=O)cc1` (stereo not drawn) had an RP-LC retention time of 922 s.

With `Cc1ccc(Cn2cc(-c3ccncc3)cc2C(=O)N(C)Cc2ccccc2)cc1`, the RP-LC retention time amounted to 751 s.

`CC(C)C(=O)NCc1cnn(-c2ccc(C(=O)NCC3CCCO3)cc2)c1` (stereo not drawn) displayed an RP-LC retention time of 640 s.

In turn, `Cc1cc(C)c(S(=O)(=O)N2CCCC(C(=O)NCc3ccncc3)C2)c(C)c1` (stereo not drawn) returned an RP-LC retention time of 647 s.

In turn, `O=C(NCCCn1cccn1)C1CCN(c2nnc3ccc(Cl)cn23)CC1` had an RP-LC retention time of 618 s.

Take `CCOC(=O)C1CCN(C(=O)c2nnc(-c3ccc(S(=O)(=O)N4CCOCC4)cc3)o2)CC1`: the RP-LC retention time was 826 s.

`CCCNC(=O)C1CCCN(S(=O)(=O)c2cc(-c3noc(C4CCCC4)n3)cs2)C1` (stereo not drawn) showed an RP-LC retention time of 1050 s.

`Fc1cccc(-n2cc(-c3noc(-c4ccc5c(c4)OCO5)n3)nn2)c1` showed an RP-LC retention time of 1010 s.

The compound `Cc1nnc(N2CCCC(C(=O)NCc3ccc(Cl)cc3)C2)c2nn(-c3ccccc3)c(C)c12` (stereo not drawn) came in with an RP-LC retention time of 760 s.

Consider `Cc1ccc2c(c1)N(S(C)(=O)=O)CCC(C(=O)NCc1ccc(Cl)cc1)O2` (stereo not drawn), for which the RP-LC retention time amounted to 954 s.

For `CCN(C(=O)Cc1ccccc1)c1nc(-c2ccc(C)cc2)cs1`, the RP-LC retention time is 1320 s.

Compound `Cc1cccc(CNC(=O)c2cc(N(C)C)n3nccc3n2)c1` registered an RP-LC retention time of 840 s.

`COc1cccc(-n2c(=O)c(C(=O)Nc3ccccc3)c(O)c3cccnc32)c1` registered an RP-LC retention time of 1220 s.

For the compound `Cc1ccc(Cl)cc1NS(=O)(=O)c1cc2c(s1)CCN(C(=O)C1CC1)C2`, the RP-LC retention time stood at 901 s.

As for `CCn1nnc2cc(-c3noc(C4CC(=O)N(c5ccc(C)c(C)c5)C4)n3)ccc21` (stereo not drawn), the RP-LC retention time worked out at 953 s.

Compound `O=C(Nc1ccc2c(c1)N(C(=O)c1cccs1)CC2)c1c(F)cccc1Cl` displayed an RP-LC retention time of 857 s.

`O=C(c1cccc(Cl)c1)N1CCN(c2nc(CN3CCOCC3)cs2)CC1` showed an RP-LC retention time of 623 s.

In the case of `O=S(=O)(c1cc(-c2nnc(C3CC3)o2)co1)N1CCN(C2CCCCC2)CC1`, the RP-LC retention time was 640 s.

The compound `COc1ccc(NS(=O)(=O)c2ccc(/C=C\c3onc(C)c3NC(C)=O)cc2)c(OC)c1` gave an RP-LC retention time of 777 s.

Turning to `O=C(NC1CCN(c2ccccc2)C1=O)c1ccccc1C(F)(F)F` (stereo not drawn), the RP-LC retention time is 826 s.

`Cc1nnc(-c2cc(NC(=O)c3ccc(C(F)(F)F)cc3)c(C)s2)o1` displayed an RP-LC retention time of 986 s.

Take `N#Cc1cccc(CN2CCC(F)(F)C(CO)C2)c1` (stereo not drawn): the RP-LC retention time was 551 s.

`CCn1ccc(C(=O)N2CCC3(CC2)C(=O)N(C)c2ccccc23)n1`: the RP-LC retention time came to 725 s.

Compound `C=CCNC(=O)C1CCCN(S(=O)(=O)c2ccc(OC)c(OC)c2)C1` (stereo not drawn) came in with an RP-LC retention time of 700 s.

Take `Cc1ccc(OCc2nn3c(COc4ccc(F)cc4)nnc3s2)cc1C`: the RP-LC retention time is 1100 s.

`O=C(NC1CCN(c2cc(-c3ccc(F)cc3)[nH]n2)C1)c1ccccc1` (stereo not drawn) returned an RP-LC retention time of 705 s.

Compound `Cc1cccc2c(=O)n(C3CCN(S(=O)(=O)c4ccc(F)cc4F)CC3)cnc12` gave an RP-LC retention time of 904 s.

On to `Cc1noc(/C=C\c2ccc(S(=O)(=O)NC3CC3)cc2)c1NC(=O)C1CC1`, for which the RP-LC retention time is 766 s.

In turn, `CCOC(=O)C(C)Oc1ccc2c(c1)O/C(=C\c1cc(Cl)cc3c1OCOC3)C2=O` (stereo not drawn) yielded an RP-LC retention time of 1160 s.

With `COc1ccc(-n2ccn3cc(-c4cc(OC)ccc4OC)nc3c2=O)cc1`, the RP-LC retention time was 828 s.

The compound `COc1cccc(C(=O)NCC(C)(O)C2CC2)c1OC` (stereo not drawn) yielded an RP-LC retention time of 669 s.

For `Cc1cccc(-c2nnc(-c3cccc(S(=O)(=O)N4CCCC4)c3)o2)c1`, the RP-LC retention time came out at 1050 s.

As to `Cc1ccc(NC(=O)Cn2c(N3CCOCC3)nc(C)cc2=O)c(Cl)c1`, the RP-LC retention time was 755 s.

Consider `COC(=O)c1ccccc1Nc1c(-c2ccc(C)cc2)nc2cnc(Br)cn12`, for which the RP-LC retention time came to 1190 s.

For `COc1cc(NC(=O)CN2C(=O)C3CCCCN3c3ccc(C(=O)N(C)C)cc32)cc(OC)c1OC` (stereo not drawn), the RP-LC retention time came out at 734 s.

For `Cc1ccc(-c2nc(NCCC3=CCCCC3)c3ccccc3n2)cc1`, the RP-LC retention time was 974 s.

`CC(C)c1ccc(C(=O)NCC(=O)Nc2nc3ccccc3[nH]2)cc1` registered an RP-LC retention time of 688 s.

`O=C(Nc1nc(-c2cccc3ccccc23)cs1)C1CCCO1` (stereo not drawn) yielded an RP-LC retention time of 978 s.

In turn, `COc1cc2c(cc1OC)C1C(C(=O)NCc3ccc4c(c3)OCO4)c3ccccc3C(=O)N1CC2` (stereo not drawn) registered an RP-LC retention time of 753 s.

As to `CC(=O)Oc1ccc(Nc2cc(C)nc3nc(-c4cccnc4)nn23)cc1`, the RP-LC retention time is 688 s.

`COc1ccccc1-c1nc(C2CCN(C(=O)c3cc4cc(Cl)ccc4[nH]3)CC2)no1`: the RP-LC retention time is 1030 s.

Compound `Cc1ccccc1C(=O)NCCc1cn(CC(C)C)c2ncccc12` came in with an RP-LC retention time of 808 s.
